Measurements: US10285989B2, “Pyrimidinone amide compounds as PDE2 inhibitors” (Merck Sharp & Dohme Corp., priority 2015, dated 2019)
Like-named read-outs stand apart in the source and are kept apart here.

Experiments:
[1] = biological target: Rhesus PDE2A3 (Macaca mulatta, UniProt B3VTJ2); assay: PDE2 fluorescence polarization (IMAP FP) inhibition assay, rhesus PDE2A3; format: biochemical, rhesus macaque
[2] = biological target: human PDE2A1 (Homo sapiens (Human), UniProt O00408); assay: PDE2 IMAP FP inhibition assay, human PDE2A1 (selectivity panel format); format: biochemical
Procedure, shortened: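 Enzyme dosed to give about 20% substrate turnover acts for 60 min at room temperature on 50 nM FAM-cAMP plus 1000 nM cGMP (Tris pH 7.2, MgCl2, DTT, Tween-20 buffer). IMAP binding solution then stops the reaction; after 1 h, polarization is measured from parallel and perpendicular fluorescence.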

[3] = biological target: P-glycoprotein (P-gp) (Homo sapiens (Human), UniProt P08183); assay: P-gp transport, experimental BA/AB ratio, human; format: in vitro ADME; conditions: LLC-PK1, 1 μM substrate concentration
Description: (§1) See Doan et al. “Passive permeability and P-glycoprotein-mediated efflux differentiate central nervous system (CNS) and non-CNS marketed drugs”, J. Pharm. Exper. […] Desirable human BA/AB ratio is less than 2.0. […] See, for example, Desai, et al. Integration of in Silico and in Vitro Tools for Scaffold Optimization during Drug Discovery: Predicting P-glycoprotein Efflux” Mol. Pharmac.

[4] = biological target: P-glycoprotein (P-gp, rat Mdr1a) (Rattus norvegicus, UniProt Q6PSM0); assay: P-gp transport, experimental BA/AB ratio, rat LLC-Mdr1a; format: in vitro ADME; conditions: LLC-PK1; rat LLC-Mdrla; 1 μM substrate concentration
Description: as §1

[5] = Lab A, read-out: Rhesus PDE2 Ki (nM) - Lab A
[6] = Lab B, read-out: Rhesus PDE2 Ki (nM) - Lab B
[7] = Lab B, read-out: Human PDE2 Ki (nM) - Lab B

Chain of human PDE2A1 (O00408 other isoform, or with tags, fused parts or gaps): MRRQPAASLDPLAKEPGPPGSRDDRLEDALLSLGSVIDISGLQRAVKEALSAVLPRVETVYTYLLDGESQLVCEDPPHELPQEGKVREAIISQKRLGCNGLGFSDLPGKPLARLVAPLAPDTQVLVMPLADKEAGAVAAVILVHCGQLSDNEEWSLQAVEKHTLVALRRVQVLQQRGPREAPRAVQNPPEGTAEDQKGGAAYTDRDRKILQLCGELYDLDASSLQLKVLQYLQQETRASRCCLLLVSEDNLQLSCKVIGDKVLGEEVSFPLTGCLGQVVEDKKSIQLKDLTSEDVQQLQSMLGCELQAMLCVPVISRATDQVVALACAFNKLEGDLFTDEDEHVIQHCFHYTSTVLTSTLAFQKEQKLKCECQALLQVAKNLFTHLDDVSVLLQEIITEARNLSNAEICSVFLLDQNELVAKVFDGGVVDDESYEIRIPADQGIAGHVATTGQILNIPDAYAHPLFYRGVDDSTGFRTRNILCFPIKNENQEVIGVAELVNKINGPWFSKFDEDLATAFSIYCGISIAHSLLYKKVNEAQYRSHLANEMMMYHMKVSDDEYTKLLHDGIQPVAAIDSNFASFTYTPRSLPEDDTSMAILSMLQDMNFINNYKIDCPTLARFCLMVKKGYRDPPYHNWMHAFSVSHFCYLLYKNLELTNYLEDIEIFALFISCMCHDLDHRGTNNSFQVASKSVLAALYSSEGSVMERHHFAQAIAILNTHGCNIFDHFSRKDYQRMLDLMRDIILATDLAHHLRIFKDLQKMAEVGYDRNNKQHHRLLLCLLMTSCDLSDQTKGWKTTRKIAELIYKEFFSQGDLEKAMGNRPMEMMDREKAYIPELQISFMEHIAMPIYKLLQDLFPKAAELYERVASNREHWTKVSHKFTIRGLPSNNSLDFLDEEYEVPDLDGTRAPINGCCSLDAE
Chain of Rhesus PDE2A3 (B3VTJ2 1-941): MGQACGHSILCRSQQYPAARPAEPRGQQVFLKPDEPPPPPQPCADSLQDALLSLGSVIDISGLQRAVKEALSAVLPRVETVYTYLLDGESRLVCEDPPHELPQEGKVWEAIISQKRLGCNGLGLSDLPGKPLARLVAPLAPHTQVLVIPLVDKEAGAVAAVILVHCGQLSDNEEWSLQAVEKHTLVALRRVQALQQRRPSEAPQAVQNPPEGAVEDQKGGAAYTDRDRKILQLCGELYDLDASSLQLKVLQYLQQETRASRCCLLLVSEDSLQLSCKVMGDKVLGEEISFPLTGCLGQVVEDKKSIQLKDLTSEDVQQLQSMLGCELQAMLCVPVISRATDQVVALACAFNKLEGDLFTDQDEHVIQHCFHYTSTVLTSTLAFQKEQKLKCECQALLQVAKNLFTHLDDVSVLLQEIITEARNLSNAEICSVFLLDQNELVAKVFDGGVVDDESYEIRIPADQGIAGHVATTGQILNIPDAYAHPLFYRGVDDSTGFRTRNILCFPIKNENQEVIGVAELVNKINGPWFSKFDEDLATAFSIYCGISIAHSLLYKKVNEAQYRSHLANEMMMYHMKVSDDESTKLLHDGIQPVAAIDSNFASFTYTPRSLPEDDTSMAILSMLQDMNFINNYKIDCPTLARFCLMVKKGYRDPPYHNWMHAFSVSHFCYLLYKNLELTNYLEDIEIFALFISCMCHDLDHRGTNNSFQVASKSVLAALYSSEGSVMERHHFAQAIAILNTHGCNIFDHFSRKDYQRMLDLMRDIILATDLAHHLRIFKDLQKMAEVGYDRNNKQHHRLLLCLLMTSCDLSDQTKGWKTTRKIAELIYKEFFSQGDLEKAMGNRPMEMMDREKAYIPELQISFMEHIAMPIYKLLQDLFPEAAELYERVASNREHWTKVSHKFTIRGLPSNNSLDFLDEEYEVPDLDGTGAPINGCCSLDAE
Chain of P-glycoprotein (P-gp) (P08183 whole entry): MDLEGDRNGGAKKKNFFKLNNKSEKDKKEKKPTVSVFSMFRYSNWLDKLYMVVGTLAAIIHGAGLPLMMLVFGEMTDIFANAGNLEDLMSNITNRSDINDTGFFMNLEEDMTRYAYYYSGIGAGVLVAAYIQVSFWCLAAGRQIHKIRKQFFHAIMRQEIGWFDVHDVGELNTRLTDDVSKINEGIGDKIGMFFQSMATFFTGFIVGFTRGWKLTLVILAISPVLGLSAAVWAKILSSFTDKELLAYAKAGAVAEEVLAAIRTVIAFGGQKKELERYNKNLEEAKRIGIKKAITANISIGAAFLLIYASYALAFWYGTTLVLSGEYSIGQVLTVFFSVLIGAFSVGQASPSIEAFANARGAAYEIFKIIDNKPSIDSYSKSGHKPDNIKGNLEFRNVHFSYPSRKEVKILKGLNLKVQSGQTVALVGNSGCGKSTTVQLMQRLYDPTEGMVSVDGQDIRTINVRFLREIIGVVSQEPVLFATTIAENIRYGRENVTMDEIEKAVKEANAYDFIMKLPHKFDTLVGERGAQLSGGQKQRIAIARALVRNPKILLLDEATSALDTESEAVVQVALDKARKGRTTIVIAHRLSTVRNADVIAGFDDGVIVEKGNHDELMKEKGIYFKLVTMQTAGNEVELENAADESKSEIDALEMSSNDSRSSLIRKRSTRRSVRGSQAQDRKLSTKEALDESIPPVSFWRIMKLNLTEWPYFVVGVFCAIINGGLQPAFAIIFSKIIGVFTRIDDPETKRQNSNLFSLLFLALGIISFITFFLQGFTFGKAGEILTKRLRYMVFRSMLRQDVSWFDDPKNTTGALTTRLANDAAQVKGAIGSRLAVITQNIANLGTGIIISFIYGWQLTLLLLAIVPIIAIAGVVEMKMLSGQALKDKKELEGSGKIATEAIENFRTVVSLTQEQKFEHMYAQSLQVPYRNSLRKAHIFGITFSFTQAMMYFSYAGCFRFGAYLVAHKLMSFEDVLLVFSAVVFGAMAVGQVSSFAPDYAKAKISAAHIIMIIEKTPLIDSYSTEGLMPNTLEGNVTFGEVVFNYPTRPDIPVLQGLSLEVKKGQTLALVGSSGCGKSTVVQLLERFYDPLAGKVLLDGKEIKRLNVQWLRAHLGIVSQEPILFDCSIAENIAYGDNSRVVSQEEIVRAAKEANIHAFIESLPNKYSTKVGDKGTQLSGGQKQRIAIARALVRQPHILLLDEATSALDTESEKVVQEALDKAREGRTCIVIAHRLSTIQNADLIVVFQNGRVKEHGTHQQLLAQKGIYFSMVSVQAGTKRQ
Chain of P-glycoprotein (P-gp, rat Mdr1a) (Q6PSM0 1-1272): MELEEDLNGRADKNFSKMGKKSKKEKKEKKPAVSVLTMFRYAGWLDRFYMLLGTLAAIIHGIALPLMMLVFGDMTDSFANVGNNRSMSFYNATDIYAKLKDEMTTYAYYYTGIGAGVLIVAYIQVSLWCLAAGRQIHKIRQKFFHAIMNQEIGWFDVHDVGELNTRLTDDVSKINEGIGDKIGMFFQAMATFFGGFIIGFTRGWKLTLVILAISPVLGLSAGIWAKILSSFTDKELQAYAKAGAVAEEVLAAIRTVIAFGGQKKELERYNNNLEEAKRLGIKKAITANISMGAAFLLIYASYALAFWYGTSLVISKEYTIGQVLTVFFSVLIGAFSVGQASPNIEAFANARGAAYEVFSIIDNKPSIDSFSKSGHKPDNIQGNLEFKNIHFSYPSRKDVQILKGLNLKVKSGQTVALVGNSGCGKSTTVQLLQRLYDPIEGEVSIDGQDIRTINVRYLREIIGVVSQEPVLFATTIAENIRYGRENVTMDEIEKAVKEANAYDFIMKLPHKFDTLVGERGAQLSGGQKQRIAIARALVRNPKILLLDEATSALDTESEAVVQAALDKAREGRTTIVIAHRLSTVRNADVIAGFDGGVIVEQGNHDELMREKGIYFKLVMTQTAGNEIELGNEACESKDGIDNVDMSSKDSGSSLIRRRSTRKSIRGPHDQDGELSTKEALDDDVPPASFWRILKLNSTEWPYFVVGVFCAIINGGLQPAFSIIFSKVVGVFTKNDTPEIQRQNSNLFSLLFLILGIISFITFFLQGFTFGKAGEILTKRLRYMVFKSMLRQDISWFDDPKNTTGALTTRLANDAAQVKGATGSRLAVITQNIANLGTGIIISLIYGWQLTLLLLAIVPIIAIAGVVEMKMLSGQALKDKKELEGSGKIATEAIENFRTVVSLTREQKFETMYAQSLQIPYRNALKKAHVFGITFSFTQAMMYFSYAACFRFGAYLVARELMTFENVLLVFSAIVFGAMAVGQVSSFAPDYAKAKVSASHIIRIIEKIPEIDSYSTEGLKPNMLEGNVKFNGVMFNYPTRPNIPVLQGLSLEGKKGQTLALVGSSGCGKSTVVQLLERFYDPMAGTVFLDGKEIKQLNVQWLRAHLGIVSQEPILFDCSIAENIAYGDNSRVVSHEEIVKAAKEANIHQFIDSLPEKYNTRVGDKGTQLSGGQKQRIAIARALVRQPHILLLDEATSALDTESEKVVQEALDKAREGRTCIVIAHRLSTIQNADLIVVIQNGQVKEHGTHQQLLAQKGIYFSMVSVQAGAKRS

SMILES	Ki [1, 5] [nM]	Ki ([2]; Lab A, read-out: Human PDE2 Ki (nM) - Lab A) [nM]	efflux ratio at 1 μM [3]	efflux ratio at 1 μM [4]	Ki [1, 6] [nM]	Ki [2, 7] [nM]
CC[C@@H](NC(=O)c1cc(=O)[nH]c(N(C)C)n1)c1ccc(SC(F)(F)F)c(F)c1 [Example 98, 2-(dimethylamino)-N-[(1R)-1-{3-fluoro-4-[(trifluoromethyl)sulfanyl]phenyl}propyl]-6-oxo-1,6-dihydropyrimidine-4-carboxamide]	0.54	0.23	0.4	3	–	–
O=C(N[C@@H](c1ccc(S(F)(F)(F)(F)F)cc1)C1CC1)c1cc(=O)[nH]c(N2CCCC2)n1 [Example 99, N-{(R)-cyclopropyl[4-(pentafluoro-λ^6-sulfanyl)phenyl]methyl}-6-oxo-2-pyrrolidin-1-yl-1,6-dihydropyrimidine-4-carboxamide]	–	–	0.7	5.8	1.1	1.1
CN(C)c1nc(C(=O)N[C@@H](c2ccc(OC(F)(F)F)cc2)C(C)(C)C)cc(=O)[nH]1 [Example 100, 2-(dimethylamino)-N-{(1R)-2,2-dimethyl-1-[4-(trifluoromethoxy)phenyl]propyl}-6-oxo-1,6-dihydropyrimidine-4-carboxamide]	–	–	0.7	2.9	0.17	0.21
CN(C)c1nc(C(=O)N[C@@H](c2ccc(OC(F)(F)F)c(F)c2)C(C)(C)C)cc(=O)[nH]1 [Example 101, 2-(dimethylamino)-N-{(1R)-1-[3-fluoro-4-(trifluoromethoxy)phenyl]-2,2-dimethylpropyl}-6-oxo-1,6-dihydropyrimidine-4-carboxamide]	–	–	1.7	10.1	0.14	0.12
CN(C)c1nc(C(=O)N[C@@H](c2ccc(C(F)(F)F)c(F)c2)C(C)(C)C)cc(=O)[nH]1 [Example 102, 2-(dimethylamino)-N-{(1R)-1-[3-fluoro-4-(trifluoromethyl)phenyl]-2,2-dimethylpropyl}-6-oxo-1,6-dihydropyrimidine-4-carboxamide]	–	–	1.4	5.7	0.18	0.2
CN(C)c1nc(C(=O)N[C@@H](c2ccc(SC(F)(F)F)cc2)C(C)(C)C)cc(=O)[nH]1 [Example 103, 2-(dimethylamino)-N-[(1R)-2,2-dimethyl-1-{4-[(trifluoromethyl)sulfanyl]phenyl}propyl]-6-oxo-1,6-dihydropyrimidine-4-carboxamide]	–	–	2.2	8.2	0.12	0.12
CC[C@@H](NC(=O)c1cc(=O)[nH]c(N(C)C)n1)c1ccc(OC(F)(F)F)c(F)c1 [Example 104, 2-(dimethylamino)-N-{(1R)-1-[3-fluoro-4-(trifluoromethoxy)phenyl]propyl}-6-oxo-1,6-dihydropyrimidine-4-carboxamide]	0.56	–	0.6	4.2	1.1	1.1
CC[C@@H](NC(=O)c1cc(=O)[nH]c(N(C)C)n1)c1ccc(OC(F)(F)F)cc1 [Example 105, 2-(dimethylamino)-6-oxo-N-{(1R)-1-[4-(trifluoromethoxy)phenyl]propyl}-1,6-dihydropyrimidine-4-carboxamide]	1	–	0.5	3.7	1.8	1.6
CC[C@@H](NC(=O)c1cc(=O)[nH]c(N(C)C)n1)c1ccc(C(F)(F)F)c(F)c1 [Example 106, 2-(dimethylamino)-N-{(1R)-1-[3-fluoro-4-(trifluoromethyl)phenyl]propyl}-6-oxo-1,6-dihydropyrimidine-4-carboxamide]	0.81	–	0.5	3.5	1.4	1.3
CN(C)c1nc(C(=O)N[C@@H](c2ccc(OC(F)(F)F)cc2)C2CC2)cc(=O)[nH]1 [Example 107, N-{(1R)-cyclopropyl[4-(trifluoromethoxy)phenyl]methyl}-2-(dimethylamino)-6-oxo-1,6-dihydropyrimidine-4-carboxamide]	0.93	–	0.4	2.2	2.2	1.7
CN(C)c1nc(C(=O)N[C@@H](c2ccc(C(F)(F)F)cc2)C2CC2)cc(=O)[nH]1 [Example 108, N-{(1R)-cyclopropyl[4-(trifluoromethyl)phenyl]methyl}-2-(dimethylamino)-6-oxo-1,6-dihydropyrimidine-4-carboxamide]	0.66	–	0.4	1.9	1.3	1.8
